Results from US11065265B2, “Compositions of fosaprepitant and methods of preparation” (SPES PHARMACEUTICALS INC., priority 2018, dated 2021).

What was measured:
[1] = cited from earlier work
[2] = Solubility enhancing effect of cyclodextrin derivative on aprepitant in aqueous medium; assay type: physicochemical

Increase in Aprepitant Solubility ([2]; Cyclodextrin Derivative 0 mg/mL): 0%
Increase in Aprepitant Solubility ([2]; Cyclodextrin Derivative 32 mg/mL): 105%
Increase in Aprepitant Solubility ([2]; Cyclodextrin Derivative 64 mg/mL): 300%
Increase in Aprepitant Solubility ([2]; Cyclodextrin Derivative 128 mg/mL): 748%
Increase in Aprepitant Solubility ([2]; Cyclodextrin Derivative 160 mg/mL): 1039%
Increase in Aprepitant Solubility ([2]; Cyclodextrin Derivative 180 mg/mL): 1244%
Increase in Aprepitant Solubility ([2]; Cyclodextrin Derivative 200 mg/mL): 1322%
Increase in Aprepitant Solubility ([2]; Cyclodextrin Derivative 255 mg/mL): 1717%
Structure (SMILES): C[C@@H](O[C@H]1OCCN(Cc2n[nH]c(=O)[nH]2)[C@H]1c1ccc(F)cc1)c1cc(C(F)(F)F)cc(C(F)(F)F)c1 [Aprepitant]
solubility in non-polar solvents such as oils ([1]; non-polar solvents such as oils): reasonably high
solubility in water ([1]; water): very limited
